Assay results: paper doi:10.1101/2024.09.20.614085v3 (biorxiv, 2026)
pEC50: −log10 of the molar value.

Each compound was assayed against SARS-CoV-2 RdRp (nsp12-nsp7-nsp8 complex) (Severe acute respiratory syndrome coronavirus 2, UniProt P0DTD1) (assay: biochemical).

In order of falling pEC50:
1. O=c1ccn([C@@H]2O[C@H](COP(=O)(O)OP(=O)(O)OP(=O)(O)O)[C@@H](O)[C@H]2O)c(=O)[nH]1 [UTP]  7.32
2. Cc1cn([C@@H]2O[C@H](COP(=O)(O)OP(=O)(O)OP(=O)(O)O)C[C@H]2O)c(=O)[nH]c1=O [5-methyl-3’-dUTP]  6.97
3. O=c1ccn([C@@H]2O[C@H](COP(=O)(O)OP(=O)(O)OP(=O)(O)O)C[C@H]2O)c(=O)[nH]1 [3’-dUTP]  6.12
